{
  "source": "patent US12195804B2",
  "about": "“Treatment of squamous cell carcinoma” (Board of Regents, The University of Texas System, priority 2018, dated 2025)",
  "key": {"[1]": {"test_system": "HNSCC cell lines", "experiment": "CellTiter-Glo cell viability assay", "assay_type": "cell-based, human", "conditions": "for cell viability, NOTCH1MUT and NOTCH1WT cell lines: 0-200 nM", "description": "Cell viability assay. […] A CellTiter-Glo luminescent cell viability assay (Promega, Madison, WI) was performed as described previously (Castel et al., 2016; Muellner et al., 2011). Inhibitory concentration (ICs) and area under the curve (AUC) values were calculated using the drexplorer R package with a best-fit dose-response model (Zumsteg et al., 2016). The combination indices were calculated using the Chou-Talalay method (Cal et al., 2017) in CalcuSyn (Biosoft, Cambridge, UK). We tested the reproducibility and robustness of the data generated using three quality control parameters as described previously (Bohnacker et al., 2017). These parameters were the concordance correlation coefficient, location shift, and maximum standard deviation between two biological replicates for three technical and two biological replicates. Based on heuristics from our previous screening studies in lung cancer (Bohnacker et al., 2017), the cut-offs for reproducibility were a concordance correlation coefficient greater than 0.8, a location shift less than 0.9, and a standard deviation less than 0.23 based on the normal mixture fit model. Experiments not satisfying these criteria were repeated. The replicate with the smallest experimental variation measured by the median of standard deviation was chosen as a representative of the replicates, and its IC values served as the final values for subsequent analysis.\nCell lines were classified as sensitive based on IC70 values less than the peak plasma concentration for each drug. To determine if cross-comparison of the PI3K/mTOR inhibitors as a class was feasible, their drug sensitivity patterns were compared with those of three cell cycle kinase inhibitors tested previously (Zhang et al., 2017). The PI3K/mTOR pathway inhibitors clustered separately from the cell cycle inhibitors (FIG. 12C)."}, "[2]": {"test_system": "HNSCC cell lines", "experiment": "Apoptosis assays (Annexin V/propidium iodide, BrdU TUNEL, cleaved PARP/caspase 3)", "assay_type": "cell-based, human", "conditions": "alone, regardless of NOTCH1 status", "description": "FIGS. 7A-7D: PI3K/mTOR signaling inhibition induces cell death in NOTCH1^MUT but not NOTCH1^WT head and neck squamous cell carcinoma (HNSCC) cell lines in vitro. FIG. 7A. Annexin V/propidium iodide or BrDU-terminal deoxynucleotidyl transferase (TdT) dUTP nick-end labeling (TUNEL) assays were used to measure apoptosis in HNSCC cells with the indicated NOTCH1 and PIK3CA mutations, which were treated with 50 nM GSK2126458 (GSK212) for 24 or 48 hours, respectively. Values are the means±standard deviations of three independent experiments. *p<0.05, unpaired two-tailed Student t-test. FIG. 7B. Western blotting of cleaved PARP (Cl-PARP) and cleaved caspase 3 (Cl-Caspase 3) levels in mutant and wild type cells after GSK212 treatment for 48 hours. FIG. 7C. NOTCH1^MUT and NOTCH1^WT HNSCC cells were plated sparsely and treated with GSK212 at the indicated concentrations for 48 hours. At 14-21 days after treatment, the cells were fixed and stained, images were captured using the GelCount Tumour Colony Counter, and colony numbers and the colorimetric intensity of the colonies were determined by measuring the optical density (OD) at 570 nm. Values are the means±standard deviations of three independent experiments. *p<0.001, unpaired two-tailed Student t-test. FIG. 7D. Three NOTCH1^WT lines (black text and bars) and three NOTCH1^MUT lines (red text and bars) were treated with increasing concentrations of GSK212 for 4 hours, and levels of PI3K/mTOR pathway proteins were measured by Western blot analysis.\nWestern blot analysis. Western blot analysis was performed as described previously (Ferrarotto et al., 2016). In brief, cells were lysed with ice-cold lysis buffer, and the lysates were centrifuged at 20,000×g for 10 minutes at 4° C. Cell samples containing equal amounts of protein were resolved using sodium dodecyl sulfate-polyacrylamide gel electrophoresis, transferred to nitrocellulose membranes, and immunoblotted with different primary antibodies. Protein expression was detected using a horseradish peroxidase-conjugated secondary antibody (Bio-Rad, Hercules, CA) and electrochemiluminescence reagent (Amersham Biosciences, Pittsburg, PA).\nApoptosis and cell cycle assays. To measure apoptosis, we performed terminal deoxynucleotidyl transferase dUTP nick end labeling (TUNEL) staining with an APO-BRDU Kit (BD Biosciences, San Jose, CA) and Annexin V/propidium iodide staining with an FITC Annexin V Apoptosis Detection Kit (BD Pharmingen, San Diego, CA) as described previously (Chandarlapaty et al., 2011). […] Data were acquired with a three-laser, 10-color Gallios flow cytometer (Beckman Coulter, Brea, CA) and analyzed using Kaluza software (Beckman Coulter, Brea, CA). […]"}, "[3]": {"test_system": "UM22A, HN31 and FaDu HNSCC xenografts", "experiment": "Orthotopic tongue xenografts treated with bimiralisib", "conditions": "for tumor growth: 50 mg/kg PO once daily 28 days"}, "[4]": {"conditions": "administered orally; cited from earlier work"}, "[5]": {"test_system": "HNSCC cell lines", "experiment": "Sensitivity of 69 HNSCC cell lines to bimiralisib", "assay_type": "cell-based, human", "source_text": "IC50 values were estimated from the best-fit dose-response model selected by calculating residual standard error using the R packages Dose Finding and drc (dose response curve) (Ritz and Streibig 2005, Bornkamp, Bretz et al. 2011). All experiments were done in duplicate and we compared the response between two experiments using concordance correlation coefficient (CCC). The CCC can be computed based on the scaled response as well as original unscaled response. The scaled version should be more relevant since this is actually the data used in IC estimation. […] To identify differentially expressed features between the comparative groups, we applied modified two-sample t-tests using the Limma package. The beta-uniform mixture (BUM) model, described by Pounds and Morris was used to control false discovery rate (FDR) (Pounds and Morris 2003)."}, "[6]": {"test_system": "other protein kinases", "conditions": "cited from earlier work"}, "[7]": {"test_system": "pAKT, pS6 and p4EBP", "conditions": "therapeutic doses; cited from earlier work"}, "[8]": {"conditions": "human, oral; cited from earlier work"}, "[9]": {"test_system": "HNSCC cell lines", "experiment": "BrdU TUNEL cell death, cell cycle and apoptosis markers after bimiralisib", "assay_type": "cell-based, human", "conditions": "5 μM", "source_text": "Apoptotic death in NOTCH1 mutants, but not wt cell lines, was confirmed with cleaved PARP and Caspase 3."}, "[10]": {"test_system": "pAKT, pS6 and p4EBP1 in HNSCC cell lines", "experiment": "Western blot of PI3K pathway signaling after bimiralisib", "assay_type": "cell-based, human", "conditions": "four HNSCC cell lines, 2 hours", "description": "Cells were lysed and then resolved by SDS PAGE. Western blot analysis was performed using the indicated antibodies."}, "[11]": {"test_system": "EGFR^MUT lung cancers", "conditions": "EGFRMUT lung cancers; cited from earlier work"}},
  "data": [
    {"smiles": "NC1(c2ccc(-c3nc4ccn5c(=O)[nH]nc5c4cc3-c3ccccc3)cc2)CCC1", "note": "[MK-2206]", "values": [
      {"measurement": "cell viability, NOTCH1MUT and NOTCH1WT cell lines", "setting": "[1]; 72 hours", "value": "resistant"}
    ]},
    {"smiles": "COc1c(OCCCN2CCOCC2)ccc2c1N=C(NC(=O)c1cnc(N)nc1)N1CCN=C21", "note": "[BAY806946]", "values": [
      {"measurement": "cell viability, NOTCH1MUT and NOTCH1WT cell lines", "setting": "[1]; 72 hours", "value": "differential effects"}
    ]},
    {"smiles": "Nc1cc(C(F)(F)F)c(-c2cc(N3CCOCC3)nc(N3CCOCC3)n2)cn1", "note": "[BKM120]", "values": [
      {"measurement": "effectiveness across HNSCC cell lines (IC70)", "setting": "[1]; 59 HNSCC cell lines, 72 hours", "value": "almost universally effective"}
    ]},
    {"smiles": "CNc1nc(-c2ccc3c(N)n[nH]c3c2)cc(N2C[C@@H](C(=O)NC3CCCCC3)CC[C@H]2C)n1", "note": "[GSK2334470]", "values": [
      {"measurement": "cell viability", "setting": "[1]; alone, regardless of NOTCH1 status", "value": "little effect"},
      {"measurement": "apoptosis", "setting": "[2]", "value": "little effect"}
    ]},
    {"smiles": "Nc1cc(C(F)(F)F)c(-c2nc(N3CCOCC3)nc(N3CCOCC3)n2)cn1", "note": "[bimiralisib, 5-(4,6-Dimorpholino-1,3,5-triazin-2-yl)-4-(trifluoromethyl)pyridin-2-amine]", "values": [
      {"measurement": "tumor growth", "setting": "[3]; FaDu (NOTCH1wt)", "value": "not affected"},
      {"measurement": "tumor growth", "setting": "[3]; UM22A and HN31 (NOTCH1 inactivating mutations)", "value": "significant reduction of tumor growth"},
      {"measurement": "body weight", "setting": "[3]; 50 mg/kg PO once daily, 28 days, mice", "value": "without body weight loss"},
      {"measurement": "crossing of the blood-brain barrier", "setting": "[4]", "value": "crosses the blood-brain barrier"},
      {"measurement": "IC50", "setting": "[5]; Homo sapiens, 66 of 69 HNSCC cell lines", "value": "< 3", "unit": "µM"},
      {"measurement": "number of cell lines Resistant", "setting": "[5]; NOTCH1 Mutant cell lines", "value": 3},
      {"measurement": "number of cell lines Sensitive", "setting": "[5]; NOTCH1 Mutant cell lines", "value": 12},
      {"measurement": "number of cell lines Resistant", "setting": "[5]; NOTCH1 WT cell lines", "value": 20},
      {"measurement": "number of cell lines Sensitive", "setting": "[5]; NOTCH1 WT cell lines", "value": 18},
      {"measurement": "inhibition of other protein kinases (KINOMEscan)", "setting": "[6]", "value": "does not significantly inhibit"},
      {"measurement": "pAKT, pS6 and p4EBP in tumor tissue", "setting": "[7]", "value": "marked decreases"},
      {"measurement": "Tmax", "setting": "[8]", "value": "< 2", "unit": "h"},
      {"measurement": "terminal half-life", "setting": "[8]", "value": 51, "unit": "h"},
      {"measurement": "cell death by BrdU-TUNEL", "setting": "[9]; 48 hours, HNSCC lines with NOTCH1 mutations", "value": "significantly increased"},
      {"measurement": "cell cycle effect", "setting": "[9]; HNSCC NOTCH1wt lines", "value": "arrested cell lines in G1/S"},
      {"measurement": "pAKT, pS6 and p4EBP1 (Western blot)", "setting": "[10]", "value": "decrease"},
      {"measurement": "pAKT, pS6 and p4EBP1 (Western blot)", "setting": "[10]; listed as Bimiralisib", "value": "inhibits PI3K pathway signaling"}
    ]},
    {"smiles": "C=CC(=O)Nc1cc(Nc2nccc(-c3cn(C)c4ccccc34)n2)c(OC)cc1N(C)CCN(C)C", "note": "[osimertinib]", "values": [
      {"measurement": "response rate", "setting": "[11]", "value": "about 80%"}
    ]},
    {"smiles": "CO[C@H]1C[C@@H]2CC[C@@H](C)[C@@](O)(O2)C(=O)C(=O)N2CCCC[C@H]2C(=O)O[C@H]([C@H](C)C[C@@H]2CC[C@@H](OP(C)(C)=O)[C@H](OC)C2)CC(=O)[C@H](C)/C=C(\\C)[C@@H](O)[C@@H](OC)C(=O)[C@H](C)C[C@H](C)/C=C/C=C/C=C/1C", "note": "[ridaforolimus]", "values": [
      {"measurement": "cell viability, NOTCH1MUT and NOTCH1WT cell lines", "setting": "[1]; 72 hours", "value": "resistant"}
    ]}
  ]
}
